The values that follow come from ChEMBL document CHEMBL6114966, “Discovery of maleimide derivatives as m6A demethylase ALKBH5 inhibitors” (Bioorg Med Chem, 2025).

pIC50: −log10 of the molar value. Activity calls are given as the source filed them. The calls are words filed in the database; no cut-off is given here. Where only a bound is given, the exact number is not on record here.

For assay [1], the target named is T1, RNA demethylase ALKBH5 (Homo sapiens, UniProt Q6P6C2). Briefly: Inhibition of ALKBH5 (unknown origin) using 5'-ATTGTCA(m6A)CAGCAGA-FAM-3' as substrate measured after 30 mins by fluorescence polarization assay. In general terms: In fluorescence polarisation assays a small probe gives low polarisation when free and higher when bound to something large.
In assay [2] the target is T1, RNA demethylase ALKBH5. Briefly: Binding affinity to ALKBH5 (unknown origin) assessed as change in melting temperature at 100 uM measured after 30 mins by thermal shift assay.
Assay [3] deals with T1, RNA demethylase ALKBH5. Briefly: Binding affinity to ALKBH5 (unknown origin) assessed as change in melting temperature at 50 uM measured after 30 mins by thermal shift assay.
For assay [4], the target named is T1, RNA demethylase ALKBH5. Put plainly: Binding affinity to ALKBH5 (unknown origin) assessed as change in melting temperature at 25 uM measured after 30 mins by thermal shift assay.
Assay [5] concerns the target T1, RNA demethylase ALKBH5. Briefly: Inhibition of ALKBH5 (unknown origin) using 5'-TAGACATTGCCATTCTCGATAGG (m6A) TCCGGTCAAACCTAGAC GAATTCCA-3' as substrate measured after 2 hrs in presence of 2-OG by PAGE based restriction enzyme digestion assay.
Assay [6] deals with T1, RNA demethylase ALKBH5. Briefly: Inhibition of ALKBH5 in human MV4-11 cells assessed as down regulation of AXL mRNA expression measured after 48 hrs by RT-qPCR analysis. In kind it is cell-based. The note with it: dose 10-40 µM. A general note: Real-time PCR tracks product formation cycle by cycle.
Assay [7] has as its target T1, RNA demethylase ALKBH5. Put plainly: Binding affinity to ALKBH5 (unknown origin) by 1H NMR STD analysis.
Assay [8] deals with T2, Alpha-ketoglutarate-dependent dioxygenase FTO (Homo sapiens, UniProt Q9C0B1). Briefly: Inhibition of FTO (unknown origin) at 25 to 200 uM using 5'-TAGACATTGCCATTCTCGATAGG (m6A) TCCGGTCAAACCTAGAC GAATTCCA-3' as substrate measured after 2 hrs in presence of varying levels of 2-OG by PAGE based restriction enzyme digestion assay. Particulars: dose 25-200 µM.
The target of assay [9] is T1, RNA demethylase ALKBH5. Briefly: Inhibition of ALKBH5 in human MV4-11 cells assessed as increase in intracellular m6A level by dot blot assay. The note with it: dose 20-40 µM. The format is cell-based.
The target of assay [10] is T1, RNA demethylase ALKBH5. Put plainly: Inhibition of ALKBH5 in human MV4-11 cells assessed as down regulation of TACC3 mRNA expression measured after 48 hrs by RT-qPCR analysis. In kind it is cell-based. Particulars: dose 10-40 µM.
Assay [11] addresses T1, RNA demethylase ALKBH5. Briefly: Inhibition of ALKBH5 in human MV4-11 cells assessed as upregulation of p21 mRNA expression measured after 48 hrs by RT-qPCR analysis. The note with it: dose 10-40 µM. The format is cell-based.
Assay [12] addresses T2, Alpha-ketoglutarate-dependent dioxygenase FTO. Put plainly: Inhibition of FTO (unknown origin) using 5'-TAGACATTGCCATTCTCGATAGG (m6A) TCCGGTCAAACCTAGAC GAATTCCA-3' as substrate measured after 2 hrs in presence of 2-OG by PAGE based restriction enzyme digestion assay.
The target of assay [13] is T1, RNA demethylase ALKBH5. Briefly: Inhibition of ALKBH5 in human MV4-11 cells assessed as down regulation of TACC3 expression measured after 48 hrs by Western blot analysis. In kind it is cell-based. The note with it: dose 5-40 µM. In general terms: In western blotting, separated proteins are transferred to a membrane and probed.
The target of assay [14] is T1, RNA demethylase ALKBH5. Put plainly: Inhibition of ALKBH5 (unknown origin) at 20 to 100 uM using 5'-TAGACATTGCCATTCTCGATAGG (m6A) TCCGGTCAAACCTAGAC GAATTCCA-3' as substrate measured after 2 hrs in presence of 2-OG by PAGE based restriction enzyme digestion assay. Particulars: dose 20-100 µM.
A further assay deals with MV4-11. Put plainly: Antiproliferative activity against human MV4-11 cells assessed as reduction in cell viability measured after 72 hrs by CellTiter-Lumi luminescence assay. The format is functional, cell-based. The note with it: MV4-11, 72 h.

Broadly, the pIC50 is the IC50 on a negative log10 scale, so that one unit is a factor of ten. `O=C(O)c1ccccc1NC1=C(Cl)C(=O)N(c2cccc(O)c2)C1=O` showed a pIC50 at RNA demethylase ALKBH5 [1] below 3.70.

Turning to `NS(=O)(=O)c1cccc(NC2=C(Cl)C(=O)N(c3ccc(Cl)c(Cl)c3)C2=O)c1`, the pIC50 against RNA demethylase ALKBH5 [1] is below 3.70.

`COc1ccc(N2C(=O)C(Cl)=C(Nc3ccccc3C(=O)O)C2=O)cc1` had a pIC50 at RNA demethylase ALKBH5 [1] below 3.70.

Usually ΔTm stands for the change in melting temperature against a reference sample. Consider `O=C1C(Cl)=C(Nc2ccccc2)C(=O)N1c1ccc(Cl)c(Cl)c1`, for which the results for the ΔTm at RNA demethylase ALKBH5 [2], on RNA demethylase ALKBH5 [3] and on RNA demethylase ALKBH5 [4] were -2.4 °C, -1.3 °C and -1.2 °C, respectively. In addition, the pIC50 is 4.34 against RNA demethylase ALKBH5 [1] and above 4.00 at RNA demethylase ALKBH5 [5].

Regarding `O=C(O)c1ccccc1NC1=C(Cl)C(=O)N(c2cccc(Cl)c2)C1=O`, on RNA demethylase ALKBH5 [1], the negative-log IC50 (pIC50) is 4.53.

Regarding `O=C(O)c1ccccc1NC1=C(Cl)C(=O)N(c2ccc(I)c(Cl)c2)C1=O`, the inhibition result at RNA demethylase ALKBH5 [6], at RNA demethylase ALKBH5 [9], at RNA demethylase ALKBH5 [10], at RNA demethylase ALKBH5 [11] and at RNA demethylase ALKBH5 [13] was “Dose-dependent-effect” throughout. In addition, the result at RNA demethylase ALKBH5 [7] was Active. The inhibition result (in assay [8]; at RNA demethylase ALKBH5 [14]) was “Active” each time. Besides, the pIC50 at RNA demethylase ALKBH5 [1] is 5.63; in [12], below 3.60; in the assay on MV4-11, 4.50; at RNA demethylase ALKBH5 [5] it was 4.95.

`N#Cc1ccc(N2C(=O)C(Cl)=C(Nc3ccccc3C(=O)O)C2=O)cc1Br`: the negative logarithm of the IC50 (pIC50) on RNA demethylase ALKBH5 [1] was 4.73.

For `O=C(O)c1ccccc1NC1=C(Cl)C(=O)N(c2ccc(C(F)(F)F)c(Br)c2)C1=O`, the pIC50 at RNA demethylase ALKBH5 [1] was 4.77; at RNA demethylase ALKBH5 [5], 4.59. For the same molecule, the inhibition result at RNA demethylase ALKBH5 [14] was “Active”.

With `O=C(O)c1ccccc1NC1=C(Cl)C(=O)N(c2ccc([N+](=O)[O-])c(Br)c2)C1=O`, the negative-log IC50 (pIC50) against RNA demethylase ALKBH5 [1] was 4.78.

As to `C#Cc1cccc(N2C(=O)C(Cl)=C(Nc3ccccc3C(=O)O)C2=O)c1`, on RNA demethylase ALKBH5 [1], the pIC50 was below 3.70.

As to `N#Cc1ccc(N2C(=O)C(Cl)=C(Nc3ccccc3C(=O)O)C2=O)cc1`, at RNA demethylase ALKBH5 [1], the pIC50 was below 3.70.

As for `N#Cc1ccc(Br)cc1N1C(=O)C(Cl)=C(Nc2ccccc2C(=O)O)C1=O`, the pIC50 against RNA demethylase ALKBH5 [1] was 4.16.

At RNA demethylase ALKBH5 [1], `O=C(O)c1ccccc1NC1=C(Cl)C(=O)N(c2ccc(Cl)c(Cl)c2)C1=O` showed a negative logarithm of the IC50 (pIC50) of 4.69.

Take `Cc1cc(N2C(=O)C(Cl)=C(Nc3ccccc3C(=O)O)C2=O)ccc1C(F)(F)F`: the negative logarithm of the IC50 (pIC50) at RNA demethylase ALKBH5 [1] was below 3.70.

As to `O=C(O)c1ccccc1NC1=C(Cl)C(=O)N(c2ccc(I)c(Br)c2)C1=O`, on RNA demethylase ALKBH5 [1], the pIC50 was 5.02.

Regarding `Cc1cc([N+](=O)[O-])c(Br)cc1N1C(=O)C(Cl)=C(Nc2ccccc2C(=O)O)C1=O`, the pIC50 against RNA demethylase ALKBH5 [1] was below 3.70.

As to `O=C(O)c1ccccc1NC1=C(Cl)C(=O)N(c2ccccc2Cl)C1=O`, the negative logarithm of the IC50 (pIC50) on RNA demethylase ALKBH5 [1] is 4.32.

`O=C(O)c1ccccc1NC1=C(Cl)C(=O)N(c2ccc(Br)c(Br)c2)C1=O` had a negative-log IC50 (pIC50) against RNA demethylase ALKBH5 [1] of 4.76.

`O=C(O)c1ccccc1NC1=C(Cl)C(=O)N(c2cccc(Br)c2)C1=O` showed a negative-log IC50 (pIC50) against RNA demethylase ALKBH5 [1] of 4.67.

Consider `O=C(O)c1ccccc1NC1=C(Cl)C(=O)N(c2cccc(I)c2)C1=O`, for which, at RNA demethylase ALKBH5 [1], the negative logarithm of the IC50 (pIC50) is 4.43.

Turning to `O=C(O)c1ccccc1NC1=C(Cl)C(=O)N(c2ccc(O)cc2)C1=O`, the negative-log IC50 (pIC50) against RNA demethylase ALKBH5 [1] was below 3.70.

The molecule `N#Cc1cc(C(F)(F)F)ccc1N1C(=O)C(Cl)=C(Nc2ccccc2C(=O)O)C1=O` had a negative-log IC50 (pIC50) at RNA demethylase ALKBH5 [1] below 3.70.

On RNA demethylase ALKBH5 [1], `COC(=O)c1cccc(NC2=C(Cl)C(=O)N(c3ccc(Cl)c(Cl)c3)C2=O)c1` gave a pIC50 below 3.70.

In the case of `Cc1ccc(C(=O)O)c(NC2=C(Cl)C(=O)N(c3ccc(Br)c(Br)c3)C2=O)c1`, at RNA demethylase ALKBH5 [1], the pIC50 was below 3.70.

The molecule `Cc1ccc(Br)cc1N1C(=O)C(Cl)=C(Nc2ccccc2C(=O)O)C1=O` gave a negative logarithm of the IC50 (pIC50) on RNA demethylase ALKBH5 [1] below 3.70.

For `O=C(O)c1ccc(F)cc1NC1=C(Cl)C(=O)N(c2ccc(Br)c(Br)c2)C1=O`, the pIC50 against RNA demethylase ALKBH5 [1] was 5.27.

With `Cc1ccc(N2C(=O)C(Cl)=C(Nc3ccccc3C(=O)O)C2=O)cc1Br`, the pIC50 on RNA demethylase ALKBH5 [1] is 4.48.

`CC(=O)c1ccc(N2C(=O)C(Cl)=C(Nc3ccccc3C(=O)O)C2=O)cc1` showed a negative-log IC50 (pIC50) at RNA demethylase ALKBH5 [1] of 4.47.
